Where two headings read alike, the source gives them in different places.
Legend:
[1] = test system: Spores from a NAP1 strain of C. difficile; experiment: Optical density (OD600) C. difficile spore germination assay; format: cell-based, Clostridium difficile; details: BHIS with 2000 μM TCA, OD600 over 20 minutes; for IC100: read-out: concentration giving essentially complete inhibition of spore germination
[2] = test system: NAP1 spores; experiment: Phase-contrast (microscope) spore count assay; format: cell-based, Clostridium difficile; details: for Percent Spore Germination t20 / Percent Spore Germination Relative to control / Percent Spore Germination t0: 10 μM bile acid analog; for Percent Spore Germination t20 / Percent Spore Germination Relative to control / inhibitor of spore germination (rating in words from Table 1 data): 2000 μM taurocholic acid; for Percent Spore Germination t20 / Percent Spore Germination Relative to control: after 20 minutes; for Percent Spore Germination t0: time zero, before exposure to TCA; for inhibitor of spore germination (rating in words from Table 1 data): 10 μM, 20 minutes
[3] = test system: highly virulent NAP1 strain of C. difficile; details: cited from earlier work
[4] = rat, in vivo; cited from earlier work
[5] = Clostridioides difficile, 20 min

Compound | IC100 [1, 5] [µM] | Percent Spore Germination t20 [2] [%] | Percent Spore Germination Relative to control [2] [%] | Percent Spore Germination t0 [2] [%] | inhibitor of spore germination (rating in words from Table 1 data) [2] | other results
C[C@H](CCC1=NC(C)(C)CO1)[C@H]1CC[C@H]2[C@@H]3[C@@H](O)C[C@@H]4C[C@H](O)CC[C@]4(C)[C@H]3CC[C@]12C [Example 9] | 500 | – | – | – | – | –
CCCCNC(=O)CC[C@@H](C)[C@H]1CC[C@H]2[C@@H]3[C@H](O)C[C@@H]4C[C@H](O)CC[C@]4(C)[C@H]3CC[C@]12C [Comparative Example 3] | 500 | – | – | – | – | –
C[C@H](CCc1nnn[nH]1)[C@H]1CCC2C3C(CC[C@@]21C)[C@@]1(C)CC[C@@H](O)CC1C[C@@H]3O (stereo partly shown) [Example 12] | – | 29 ± 4 | 19 ± 4 | 17 ± 4 | moderate inhibitors | –
C[C@H](CCC(=O)N1CCCC1)[C@H]1CC[C@H]2[C@@H]3[C@@H](O)C[C@@H]4C[C@H](O)CC[C@]4(C)[C@H]3CC[C@]12C [Example 1] | 100 | – | – | – | – | –
CO[C@@H]1CC[C@@]2(C)[C@@H](C1)C[C@H](OS(=O)(=O)[O-])[C@@H]1[C@@H]2CC[C@]2(C)[C@@H]([C@H](C)CCc3nnn[n-]3)CC[C@@H]12.[Na+].[Na+] [Example 17] | – | 44 ± 3 | 42 ± 3 | 21 ± 3 | moderate inhibitors | –
CCCCNC(=O)CC[C@@H](C)[C@H]1CC[C@H]2[C@@H]3[C@@H](O)C[C@@H]4C[C@H](O)CC[C@]4(C)[C@H]3CC[C@]12C [Comparative Example 4] | 500 | – | – | – | – | –
COC(=O)CC[C@@H](C)[C@H]1CC[C@H]2[C@@H]3[C@H](OC)C[C@@H]4C[C@H](O)CC[C@]4(C)[C@H]3CC[C@]12C [Comparative Example 14] | 500 | – | – | – | – | –
C[C@H](CCC(=O)Nc1cccc(S(=O)(=O)O)c1)[C@H]1CC[C@H]2[C@@H]3[C@H](O)C[C@@H]4C[C@H](O)CC[C@]4(C)[C@H]3C[C@H](O)[C@]12C [CamSA] | – | – | – | – | – | efficacy at inhibiting germination [3]: very little efficacy
CC(=O)O[C@@H]1CC[C@@]2(C)[C@@H](C1)C[C@@H](OC(C)=O)[C@@H]1[C@@H]2CC[C@]2(C)[C@@H]([C@H](C)CCC(N)=O)CC[C@@H]12 [Comparative Example 20] | 50 | – | – | – | – | –
CO[C@H]1C[C@@H]2C[C@H](O)CC[C@]2(C)[C@H]2CC[C@]3(C)[C@@H]([C@H](C)CCC(=O)O)CC[C@H]3[C@H]12 [Comparative Example 10, reference compound] | – | 71 ± 2 | 75 ± 2 | 25 ± 4 | weak inhibitors | concentration giving partial inhibition of spore germination [1]: 0.5 mM
CO[C@@H]1CC[C@@]2(C)[C@@H](C1)C[C@@H](OS(=O)(=O)[O-])[C@@H]1[C@@H]2CC[C@]2(C)[C@@H]([C@H](C)CCc3nnn[n-]3)CC[C@@H]12.[Na+].[Na+] [Example 18] | – | 48 ± 11 | 51 ± 11 | 20 ± 11 | moderate inhibitors | IC100 [1]: 25 µM
CC(CCC(=O)O)C1CCC2C3C(OS(=O)(=O)O)CC4CC(O)CCC4(C)C3CCC12C (stereo not shown) [C7-sulfated UDCA] | – | – | – | – | – | absorption from the colon [4]: poorly absorbed
CO[C@@H]1CC[C@@]2(C)[C@@H](C1)C[C@H](O)[C@@H]1[C@@H]2CC[C@]2(C)[C@@H]([C@H](C)CCc3nnn[n-]3)CC[C@@H]12.[Na+] [Example 15] | – | 31 ± 4 | 26 ± 4 | 16 ± 4 | moderate inhibitors | –
COC(=O)CC[C@@H](C)[C@H]1CC[C@H]2[C@@H]3[C@@H](OC)C[C@@H]4C[C@H](O)CC[C@]4(C)[C@H]3CC[C@]12C [Comparative Example 11] | 500 | – | – | – | – | –
CO[C@@H]1CC[C@@]2(C)[C@@H](C1)C[C@@H](O)[C@@H]1[C@@H]2CC[C@]2(C)[C@@H]([C@H](C)CCC(=O)O)CC[C@@H]12 [KLS-1-012B] | – | – | – | – | – | concentration giving partial inhibition of spore germination [1]: 0.1 mM
CO[C@@H]1CC[C@@]2(C)[C@@H](C1)C[C@@H](O)[C@@H]1[C@@H]2CC[C@]2(C)[C@@H]([C@H](C)CCc3nnn[n-]3)CC[C@@H]12.[Na+] [Example 16] | – | 21 ± 4 | 8 ± 4 | 16 ± 4 | potent inhibitors | IC100 [1]: 5 µM
CO[C@@H]1CC[C@@]2(C)[C@@H](C1)C[C@H](OS(=O)(=O)[O-])[C@@H]1[C@@H]2CC[C@]2(C)[C@@H]([C@H](C)CCC(=O)N3CCCC3)CC[C@@H]12.[Na+] [Example 7] | – | 30 ± 6 | 9 ± 5 | 18 ± 2 | potent inhibitors | –
COC(=O)CC[C@@H](C)[C@H]1CC[C@H]2[C@@H]3[C@H](O)C[C@@H]4C[C@H](O)CC[C@]4(C)[C@H]3CC[C@]12C [Comparative Example 1, reference compound] | 500 | 71 ± 1 | 73 ± 1 | 25 ± 6 | weak inhibitors | –
COC(=O)CC[C@@H](C)[C@H]1CC[C@H]2[C@@H]3[C@@H](O)C[C@@H]4C[C@H](OC)CC[C@]4(C)[C@H]3CC[C@]12C [KLS-1-031C] | 500 | – | – | – | – | –
CO[C@@H]1CC[C@@]2(C)[C@@H](C1)C[C@H](O)[C@@H]1[C@@H]2CC[C@]2(C)[C@@H]([C@H](C)CCC(=O)O)CC[C@@H]12 [KLS-1-014B] | – | – | – | – | – | concentration giving partial inhibition of spore germination [1]: 0.50 mM
C[C@H](CCc1nnn[n-]1)[C@H]1CC[C@H]2[C@@H]3[C@H](O)C[C@@H]4C[C@H](O)CC[C@]4(C)[C@H]3CC[C@]12C.[Na+] [Example 14] | – | 22 ± 6 | 12 ± 6 | 15 ± 6 | potent inhibitors | IC100 [1]: 10 µM
COC(=O)CC[C@@H](C)[C@H]1CC[C@H]2[C@@H]3C[C@H](O)[C@@H]4C[C@H](O)CC[C@]4(C)[C@H]3CC[C@]12C [Example 3] | 500 | – | – | – | – | –
C[C@H](CCC(=O)N1CCCC1)[C@H]1CC[C@H]2[C@@H]3[C@H](O)C[C@@H]4C[C@H](O)CC[C@]4(C)[C@H]3CC[C@]12C [Example 2] | 100 | – | – | – | – | –
COC(=O)CC[C@@H](C)[C@H]1CC[C@H]2[C@@H]3[C@@H](O)C[C@@H]4C[C@H](O)CC[C@]4(C)[C@H]3CC[C@]12C [Comparative Example 2] | 100 | – | – | – | – | –
CO[C@@H]1CC[C@@]2(C)[C@@H](C1)C[C@H](OC)[C@@H]1[C@@H]2CC[C@]2(C)[C@@H]([C@H](C)CCC(=O)O)CC[C@@H]12 [KLS-1-014A] | – | – | – | – | – | concentration giving partial inhibition of spore germination [1]: 1.0 mM
COC(=O)CC[C@@H](C)[C@H]1CC[C@H]2[C@@H]3[C@H](O)C[C@@H]4C[C@H](OC)CC[C@]4(C)[C@H]3CC[C@]12C [KLS-1-029D] | 500 | – | – | – | – | –
